Data as given in patent USRE34387E, “Method for restoring depleted purine nucleotide pools” (priority 1988, dated 1993).
Each block holds one compound with its values, some of them ahead of it.

Assays:
cardiovascular system [1] = settings: cited from earlier work; for hemodynamic effects on the cardiovascular system: purine precursors previously used to restore ATP
myocardium = assay: Regional myocardial blood flow, coronary occlusion and 24 hr reperfusion; assay type: in vivo, dogs; settings: any time point
Experimental: (§1) Catheters were placed in the left atrium and aorta, and a snare positioned around the left anterior descending coronary artery in 15 open-chest dogs. Regional myocardial blood flow was measured and transmural tissue samples were obtained using known techniques. Blood flow measurements and tissue samples were obtained prior to and just before release of a 12-minute coronary occlusion. The chest was closed and the animals allowed to awaken. Twenty-four hours later, the animals were anesthetized, the chest opened, blood flow measured, and tissue samples obtained. No hemodynamic measurements were made on the animals.
(§2) In seven animals, 200 mM AICAriboside (Sigma Chemical Co.) was infused into the left atrial catether at either 14 μmol/min (n=2) or 37 μmol/min (n=5) beginning with coronary occlusion and continuing for 24 hours. Eight control animals were infused with an equal volume of saline over 24 hours.
(§3) All comparisons between AICAriboside and saline treated animals were done by unpaired analyses.

[2] = system: skeletal muscle (gastrocnemius); assay: Purine metabolism in skeletal muscle during and after AICAriboside infusion
[3] = Serum urate concentrations after AICAriboside infusion; assay type: in vivo, adult mongrel dogs; settings: following infusion of 8 mmol
Experimental: Animal Preparation--Seven adult mongrel dogs were anesthetized intramuscularly with 40 mg of morphine sulfate and intravenously with 80 mg/kg of chloralose, an endotraceal tube was inserted, and ventilation was maintained with an Emerson volume-cycled respirator and 100% oxygen. The heart was exposed through a left lateral thoracotomy, polyvinyl chloride catheters (3-mm outer diameter) were inserted into the left atrium and into the aorta through the right femoral artery, and a Statham TTQ electromagnetic flow meter probe was positioned around the ascending aorta. […] Aortic flow was measured with a Howell Instruments Series 1000 Flowmeter, and stroke volume and cardiac output were calculated from the aortic flow measurement. All hemodynamic data were monitored continuously throughout the course of the study. […]
After hemodynamic parameters had stabilized, regional myocardial blood flow was measured by injecting radioactively labled microspheres. […] Venous and arterial blood samples were also obtained at 42 min. of infusion, and regional myocardial blood flow was measured at 10 and 39 min. of AICAriboside infusion. […]
Other Methods--Serum urate was determined by the enzymatic spectrophotometric method as previously described in Liddle et al., J. Lab. […]

postischemic myocardium = assay: Nucleotide and creatine phosphate content in postischemic myocardium; assay type: in vivo, dogs
Experimental: as §1, §2
Nucleotide and creatine phosphate analyses were performed by high performance liquid chromatography on acid extracts of the tissue as previously described. Nucleotide analysis is described in Example 1, and creatine phosphate analysis is described in Juengling and Kammermeier, Anal. Biochem., 102, 358-361 (1980).
as §3

Cardiac muscle = assay: Purine metabolism in normal cardiac muscle during and after AICAriboside infusion
cardiovascular system [4] = system: cardiovascular system; set-up: species or system adult mongrel dogs; settings: dog, in vivo
Experimental: Animal Preparation--Seven adult mongrel dogs were anesthetized intramuscularly with 40 mg of morphine sulfate and intravenously with 80 mg/kg of chloralose, an endotraceal tube was inserted, and ventilation was maintained with an Emerson volume-cycled respirator and 100% oxygen. The heart was exposed through a left lateral thoracotomy, polyvinyl chloride catheters (3-mm outer diameter) were inserted into the left atrium and into the aorta through the right femoral artery, and a Statham TTQ electromagnetic flow meter probe was positioned around the ascending aorta. The aortic pressure catheter was connected to a Statham P23 Db transducer (Statham Instruments, Inc., Oxnard, Calif.) with the zero reference at the midchest level. Aortic flow was measured with a Howell Instruments Series 1000 Flowmeter, and stroke volume and cardiac output were calculated from the aortic flow measurement. All hemodynamic data were monitored continuously throughout the course of the study. In 5 of the animals, the skin of the left dorsal hindlimb was opened and the gastrocnemius muscle was identified for subsequent tissue sampling.
After hemodynamic parameters had stabilized, regional myocardial blood flow was measured by injecting radioactively labled microspheres. Tissue samples were obtained from the left ventricle and from the left gastrocnemius muscle. A venous blood sample was also obtained. AICAriboside (100 mM) was then infused into the left atrium at 1.9 ml/min. Repeat tissue samples were taken from the left ventricle at 15, 30 and 42 min. of infusion, and tissue samples were taken from the gastrocnemius muscle at 30 min. of infusion. Venous and arterial blood samples were also obtained at 42 min. of infusion, and regional myocardial blood flow was measured at 10 and 39 min. of AICAriboside infusion. AICAriboside infusion was terminated after 42 min., and tissue samples were taken from the left ventricle at 10, 20, 30 and 60 min. postinfusion and from the left gastrocnemius muscle at 2,22 and 60 min. postinfusion. Venous blood samples were obtained at 10, 30 and 60 min. after AICAriboside infusion. In 4 of the 7 dogs, 400 mM formate was infused intravenously at the rate of 1.9 ml/min. for 42 min. prior to and during AICAriboside infusion. These same animals also received 6 mg of folinic acid as an intravenous bolus 30 min. prior to and 15 min. after initiating AICAriboside infusion.

[5] = target: T1, adenylosuccinate lyase (cardiac muscle) (Mus musculus, UniProt P54822); assay: Adenylosuccinate lyase assay, cardiac muscle enzyme; assay type: biochemical, C57BL/6J mice; settings: pH 7.4, 25° C., 4 enzyme preparations, read-out: apparent Km of adenylosuccinate lyase for adenylosuccinate
T1 construct: the hearts and gastrocnemius muscles were excised, weighed, and homogenized to a slurry; from tissue; host or cells: mouse heart (C57BL/6J), dialyzed 10,000×g supernatant
T1 sequence (P54822 2-484 limits assumed): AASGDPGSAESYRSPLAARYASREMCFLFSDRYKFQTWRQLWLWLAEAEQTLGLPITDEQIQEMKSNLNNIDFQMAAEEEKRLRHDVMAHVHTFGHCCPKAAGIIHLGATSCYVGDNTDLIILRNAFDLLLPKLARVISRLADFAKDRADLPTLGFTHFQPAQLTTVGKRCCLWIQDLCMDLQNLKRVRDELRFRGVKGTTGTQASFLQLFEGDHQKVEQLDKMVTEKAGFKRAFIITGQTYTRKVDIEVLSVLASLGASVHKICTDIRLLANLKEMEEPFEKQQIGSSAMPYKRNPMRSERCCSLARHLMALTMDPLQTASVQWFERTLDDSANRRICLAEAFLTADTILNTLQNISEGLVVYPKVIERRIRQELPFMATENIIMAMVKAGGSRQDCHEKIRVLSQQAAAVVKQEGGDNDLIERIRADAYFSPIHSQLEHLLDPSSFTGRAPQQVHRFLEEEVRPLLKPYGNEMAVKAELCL
Experimental: (§4) Preparation and Assay of Adenylosuccinate Lyase--Six-week-old C57BL/6J mice were killed, and the hearts and gastrocnemius muscles were excised, weighed, and homogenized to a slurry in 4 volumes of 50 mM Tris-HCl, pH 7.4 at 25° C. containing 1 mM EDTA and 1 mM β-mercaptoethanol in a TenBroeck glass homogenizer. The homogenate was centrifuged at 10,000×g for 15 min and the supernatant was dialyzed against 1,000 volumes of the extraction buffer for 2 h at 4° C. The lyase activity was partially stabilized by the addition of EDTA and β-mercaptoethanol, but some activity was lost even on storage at -70° C.
(§5) The assays were carried out at pH 7.4 were reaction mixtures that contained 50 mM Tris-HCl buffer, 1 mM EDTA, 1mM β-mercaptoethanol, 20 μM adenylosuccinate, and the enzyme extract (protein concentration, 0.13-0.20 mg/ml). The decrease in absorbance at 280 nm was measured using a Gilford recording spectrophotometer. All assays were done at 25° C. and were linear with respect to time of incubation and with the amount of protein in extract added to the assay.
(§6) These are average values for experiments with 4 separate enzyme preparations. The experimental points in the double reciprocal plots were fitted to the best line by the method of least squares with all points being weighted equally.

[6] = target: T2, adenylosuccinate lyase (skeletal muscle) (Mus musculus, UniProt P54822); assay: Adenylosuccinate lyase assay, skeletal muscle enzyme; assay type: biochemical, C57BL/6J mice; settings: pH 7.4, 25° C., 4 enzyme preparations, read-out: apparent Km of adenylosuccinate lyase for adenylosuccinate
T2 construct: the hearts and gastrocnemius muscles were excised, weighed, and homogenized to a slurry; from tissue; host or cells: mouse gastrocnemius muscle (C57BL/6J), dialyzed 10,000×g supernatant
T2 sequence (P54822 2-484 limits assumed): T1 sequence (P54822 2-484 limits assumed)
Experimental: as §4, §5, §6

[7] = target: T1, adenylosuccinate lyase (cardiac muscle); settings: bifunctional enzyme; cited from earlier work
[8] = before, during or after infusion, detection limit 3 nmol/g
[9] = skeletal muscle, infusion and up to 60 min thereafter
[10] = endo, preocclusion (before infusion)
[11] = epi, preocclusion (before infusion)
[12] = myocardial, throughout the study

SMILES: Nc1ncnc2c1ncn2[C@@H]1O[C@H](CO)[C@@H](O)[C@H]1O [adenosine]
hemodynamic status of the animal (cardiovascular system [1]; adenosine administration): profound changes
hemodynamic effects on the cardiovascular system (cardiovascular system [1]): deleterious hemodynamic effects

SMILES: O=c1[nH]cnc2nc[nH]c12 [hypoxanthine]
hemodynamic effects on the cardiovascular system (cardiovascular system [1]): deleterious hemodynamic effects

SMILES: NC(=O)c1ncn([C@@H]2O[C@H](CO)[C@@H](O)[C@H]2O)c1N [AICAriboside, 5-amino-4-imidazolecarboxamide riboside]
regional flow versus saline group (myocardium): no differences in regional flow at any time point
Adenylosuccinate in biopsies [2, 8]: not detectable
AICAriboside concentration after infusion was stopped ([2]; skeletal muscle): fell rapidly in both tissues
IMP content rise ([2]; skeletal muscle): 6-7 fold
creatine phosphate content ([2]; skeletal muscle, 10.6±0.5 μmol/g at beginning): did not vary significantly
NAD+ content ([2]; skeletal muscle, did not vary throughout infusion): 0.32 ± 0.04 µmol/g
Adenosine ([2]; skeletal muscle, during infusion): did not increase
hypoxanthine content [2, 9]: consistently elevated
inosine content [2, 9]: consistently elevated
mean serum urate concentration increase [3]: 3.7 fold
GTP content versus saline (postischemic myocardium; 24 hours reperfusion, epicardium and endocardium, P<0.003): greater in the AICAriboside group
epicardial and endocardial ATP content versus saline (postischemic myocardium; 24 hours reperfusion, previously ischemic region, P<0.001): greater in the AICAriboside group
GTP content restoration (postischemic myocardium; 24 hours, saline 82% (epi), 78% (endo) of nonischemic): restored to nonischemic levels
ATP content increase after reperfusion (postischemic myocardium; endo, 24 hours, saline group 21%): 63%
ADP (postischemic myocardium; [10]): 0.92 ± 0.03 μmol/g wet wt
AMP (postischemic myocardium; [10]): 0.066 ± 0.007 μmol/g wet wt
CP (creatine phosphate) (postischemic myocardium; [10]): 6.8 ± 0.7 μmol/g wet wt
CTP (postischemic myocardium; [10]): 0.055 ± 0.001 μmol/g wet wt
IMP (postischemic myocardium; [10]): 0.004 ± 0.001 μmol/g wet wt
NAD (postischemic myocardium; [10]): 0.058 ± 0.04 μmol/g wet wt
UTP (postischemic myocardium; [10]): 0.132 ± 0.004 μmol/g wet wt
ATP content increase after reperfusion (postischemic myocardium; epi, 24 hours, saline group 2%): 41%
ADP (postischemic myocardium; [11]): 0.87 ± 0.03 μmol/g wet wt
AMP (postischemic myocardium; [11]): 0.064 ± 0.016 μmol/g wet wt
CP (creatine phosphate) (postischemic myocardium; [11]): 7.7 ± 0.6 μmol/g wet wt
IMP (postischemic myocardium; [11]): 0.005 ± 0.002 μmol/g wet wt
NAD (postischemic myocardium; [11]): 0.060 ± 0.02 μmol/g wet wt
UTP (postischemic myocardium; [11]): 0.122 ± 0.005 μmol/g wet wt
ATP percentage drop during ischemia versus saline (postischemic myocardium; occlusion): comparable in both groups
AMP or ADP content versus saline (postischemic myocardium; postischemic region): no detectable differences
CTP content versus saline (postischemic myocardium; postischemic region): no statistically significant differences
NAD+ content versus saline (postischemic myocardium; postischemic region): no statistically significant differences
Total adenine nucleotide content versus saline (postischemic myocardium; postischemic region): also greater in the AICAriboside group
UTP content versus saline (postischemic myocardium; postischemic region): no statistically significant differences
mean AICAriboside content of cardiac muscle, greater than that of skeletal muscle (Cardiac muscle; 30 min of infusion): 66%
uptake by myocardial cells (Cardiac muscle; Example 1): taken up rapidly by myocardial cells
Adenylosuccinate in biopsies (Cardiac muscle; [8]): not detectable
time of AICAR peak (Cardiac muscle; cardiac and skeletal muscle): peaked minutes after AICAriboside infusion was stopped
IMP content increase (Cardiac muscle; cardiac muscle): 3-4 fold
myocardial content of CTP (Cardiac muscle; cardiac muscle): no detectable change
adenylate energy charge (Cardiac muscle; cardiac muscle, 0.929±0.003 before infusion): did not vary during the course of the experiment
creatine phosphate content (Cardiac muscle; cardiac muscle, 6.8±0.4 μmol/g at beginning): did not vary significantly
TAN (total adenine nucleotide) (Cardiac muscle; cardiac muscle, 20 min postinfusion): 6.70 ± 0.10 μmol/g. wet weight
Adenosine (Cardiac muscle; cardiac muscle, during infusion): did not increase
AICAriboside concentration after infusion was stopped (Cardiac muscle; cardiac muscle, rate of decline greater than in skeletal): fell rapidly in both tissues
ADP change (Cardiac muscle; cardiac tissue, any time point): did not change significantly at any time point
AMP change (Cardiac muscle; cardiac tissue, any time point): did not change significantly at any time point
ATP content (increase to) (Cardiac muscle; cardiac tissue, from 5.55±0.17, p<0.02): 6.07±0.17 μmol/g , wet weight
accumulation of AICAriboside-TP (Cardiac muscle; cardiac versus skeletal muscle): greater in cardiac muscle
NAD+ content (Cardiac muscle; heart, did not vary throughout infusion): 0.64 ± 0.01 µmol/g
hypoxanthine content (Cardiac muscle; [12]): only minimally increased
inosine content (Cardiac muscle; [12]): only minimally increased
distribution from plasma (Cardiac muscle; similar concentrations in plasma and myocardium): readily diffuses from plasma into the interstitial space and intracellular compartments
Heart rate (cardiovascular system [4]): not significantly altered
aortic systolic and diastolic pressure (cardiovascular system [4]): not significantly altered
cardiac output (cardiovascular system [4]): not significantly altered
epicardial and endocardial regional blood flow (cardiovascular system [4]): not significantly altered

SMILES: OC[C@H]1O[C@@H](n2cnc3c(O)ncnc32)[C@H](O)[C@@H]1O [inosine]
hemodynamic effects on the cardiovascular system (cardiovascular system [1]): deleterious hemodynamic effects

Km [5]: 2.2 ± 0.3 µM
Km [6]: 4.5 ± 1.5 µM
SMILES: O=C(O)C[C@H](Nc1ncnc2c1ncn2[C@@H]1O[C@H](COP(=O)(O)O)[C@@H](O)[C@H]1O)C(=O)O [adenylosuccinate]

SMILES: NC(=O)c1ncn([C@@H]2O[C@H](COP(=O)(O)O)[C@@H](O)[C@H]2O)c1N [AICAR, 5-Amino-4-imidazolecarboxamide Ribotide]
effect on both lyase activities of adenylosuccinate lyase [7]: inhibited by AICAR
